# Test results published in patent US6737383B1, “Herbicidal oxadiazolidines” (priority 1999, dated 2004).
# Columns and labels:
# bedstraw = assay: Test B pre/postemergence bedstraw; format: in vivo, Galium aparine
# Method in brief: (§1)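 Test chemicals in a non-phytotoxic solvent mixture with surfactant were sprayed preemergence onto planted seeds and postemergence onto plants 2 to 18 cm tall (1- to 4-leaf stage). After twelve to sixteen days in a greenhouse, injury was visually rated against untreated controls from 0 (no effect) to 10 (complete control).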
# blackgrass = assay: Test B pre/postemergence blackgrass; format: in vivo, Alopecurus myosuroides
# Method in brief: as §1
# surinam grass = assay: Test B pre/postemergence surinam grass; format: in vivo, Brachiaria decumbens
# Method in brief: as §1
# cocklebur = assay: Test B pre/postemergence cocklebur; format: in vivo, Xanthium strumarium
# Method in brief: as §1
# giant foxtail = assay: Test B pre/postemergence giant foxtail; format: in vivo, Setaria faberii
# Method in brief: as §1
# morningglory = assay: Test B pre/postemergence morningglory; format: in vivo, Ipomoea hederacea
# Method in brief: as §1
# pigweed = assay: Test B pre/postemergence pigweed; format: in vivo, Amaranthus retroflexus
# Method in brief: as §1
# rape = assay: Test B pre/postemergence rape; format: in vivo, Brassica napus
# Method in brief: as §1
# soybean = assay: Test B pre/postemergence soybean; format: in vivo, Glycine max
# Method in brief: as §1
# sugar beet = assay: Test B pre/postemergence sugar beet; format: in vivo, Beta vulgaris
# Method in brief: as §1
# wheat = assay: Test B pre/postemergence wheat; format: in vivo, Triticum aestivum
# Method in brief: as §1
# wild oat = assay: Test B pre/postemergence wild oat; format: in vivo, Avena fatua
# Method in brief: as §1
# purple nutsedge = assay: Test B pre/postemergence purple nutsedge; format: in vivo, Cyperus rotundus
# Method in brief: as §1
# smallflower flatsedge = assay: Test B flood test smallflower flatsedge; format: in vivo, Cyperus difformis
# Method in brief: (§2)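 Flood test on plants grown to the 2-leaf stage; treated plants kept in greenhouse twelve to sixteen days, then visually rated against controls on a 0 (no effect) to 10 (complete control) scale.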
# duck salad = assay: Test B flood test duck salad; format: in vivo, Heteranthera limosa
# Method in brief: as §2
# bamyardgrass = assay: Test B flood test barnyardgrass; format: in vivo, Echinochloa crus-galli
# Method in brief: as §2
# [1] = Preemergence, Rate 250 g/ha, scale of 0 to 10 where 0 is no effect and 10 is complete control
# [2] = Preemergence, Rate 500 g/ha, scale of 0 to 10 where 0 is no effect and 10 is complete control
# [3] = Rate 62 g/ha, Postemergence, scale 0 to 10 (0 no effect, 10 complete control)
# [4] = Rate 125 g/ha, Postemergence, scale of 0 to 10 where 0 is no effect and 10 is complete control
# [5] = Rate 125 g/ha, Preemergence, scale of 0 to 10 where 0 is no effect and 10 is complete control
# [6] = Rate 250 g/ha, Postemergence, scale of 0 to 10 where 0 is no effect and 10 is complete control
# [7] = Rate 500 g/ha, Postemergence, scale 0 to 10, 0 no effect, 10 complete control
# [8] = Preemergence, Rate 62 g/ha, scale of 0 to 10 where 0 is no effect and 10 is complete control
# [9] = Rate 62 g/ha, headed Pre-emergence (flood test species), scale 0 to 10 (0 no effect, 10 complete control)
# [10] = Rate 125 g/ha, Pre-emergence, flood test species, scale 0 to 10 where 0 is no effect and 10 is complete control
# [11] = Rate 250 g/ha, Pre-emergence, flood-test species, scale 0 to 10, 0 is no effect, 10 is complete control
# [12] = Rate 500 g/ha, Pre-emergence, flood test species, scale 0 to 10 (0 no effect, 10 complete control)
compound,measurement,setting,value
CC(C)N(C(=O)n1oc(=O)n(CC(C)(C)C)c1=O)c1ccc(F)cc1F [Compound 277],Bedstraw plant response rating,bedstraw; [1],0
same,"Plant response rating, Bedstraw",bedstraw; [2],2
same,Bedstraw plant response rating,bedstraw; [3],5
same,Bedstraw plant response rating,bedstraw; [4],6
same,Bedstraw plant response rating,bedstraw; [5],0
same,"Plant response rating, Bedstraw",bedstraw; [6],8
same,Bedstraw plant response rating,bedstraw; [7],8
same,Blackgrass plant response rating,blackgrass; [1],10
same,"Plant response rating, Blackgrass",blackgrass; [2],10
same,Blackgrass plant response rating,blackgrass; [3],2
same,Blackgrass plant response rating,blackgrass; [4],8
same,Blackgrass plant response rating,blackgrass; [5],9
same,"Plant response rating, Blackgrass",blackgrass; [6],8
same,Blackgrass plant response rating,blackgrass; [7],8
same,B. signalgrass plant response rating,surinam grass; [1],10
same,"Plant response rating, B. signalgrass",surinam grass; [2],10
same,B. signalgrass plant response rating,surinam grass; [3],0
same,B. signalgrass plant response rating,surinam grass; [4],0
same,B. signalgrass plant response rating,surinam grass; [5],9
same,"Plant response rating, B. signalgrass",surinam grass; [6],1
same,B. signalgrass plant response rating,surinam grass; [7],3
same,Cocklebur plant response rating,cocklebur; [8],0
same,Cocklebur plant response rating,cocklebur; [1],0
same,"Plant response rating, Cocklebur",cocklebur; [2],0
same,Cocklebur plant response rating,cocklebur; [3],0
same,Cocklebur plant response rating,cocklebur; [4],0
same,Cocklebur plant response rating,cocklebur; [5],0
same,"Plant response rating, Cocklebur",cocklebur; [6],1
same,Cocklebur plant response rating,cocklebur; [7],2
same,Giant foxtail plant response rating,giant foxtail; [8],10
same,Giant foxtail plant response rating,giant foxtail; [1],10
same,"Plant response rating, Giant foxtail",giant foxtail; [2],10
same,Giant foxtail plant response rating,giant foxtail; [3],2
same,Giant foxtail plant response rating,giant foxtail; [4],3
same,Giant foxtail plant response rating,giant foxtail; [5],10
same,"Plant response rating, Giant foxtail",giant foxtail; [6],4
same,Giant foxtail plant response rating,giant foxtail; [7],6
same,Morningglory plant response rating,morningglory; [8],0
same,Morningglory plant response rating,morningglory; [1],0
same,"Plant response rating, Morningglory",morningglory; [2],0
same,Morningglory plant response rating,morningglory; [3],7
same,Morningglory plant response rating,morningglory; [4],8
same,Morningglory plant response rating,morningglory; [5],0
same,"Plant response rating, Morningglory",morningglory; [6],8
same,Morningglory plant response rating,morningglory; [7],9
same,Redroot pigweed plant response rating,pigweed; [1],0
same,"Plant response rating, Redroot pigweed",pigweed; [2],5
same,Redroot pigweed plant response rating,pigweed; [3],1
same,Redroot pigweed plant response rating,pigweed; [4],2
same,Redroot pigweed plant response rating,pigweed; [5],0
same,"Plant response rating, Redroot pigweed",pigweed; [6],4
same,Redroot pigweed plant response rating,pigweed; [7],5
same,Rape plant response rating,rape; [1],1
same,"Plant response rating, Rape",rape; [2],2
same,Rape plant response rating,rape; [3],0
same,Rape plant response rating,rape; [4],2
same,Rape plant response rating,rape; [5],1
same,"Plant response rating, Rape",rape; [6],3
same,Rape plant response rating,rape; [7],3
same,Soybean plant response rating,soybean; [8],0
same,Soybean plant response rating,soybean; [1],0
same,"Plant response rating, Soybean",soybean; [2],4
same,Soybean plant response rating,soybean; [3],3
same,Soybean plant response rating,soybean; [4],4
same,Soybean plant response rating,soybean; [5],0
same,"Plant response rating, Soybean",soybean; [6],6
same,Soybean plant response rating,soybean; [7],8
same,Sugarbeets plant response rating,sugar beet; [1],2
same,"Plant response rating, Sugarbeets",sugar beet; [2],7
same,Sugarbeets plant response rating,sugar beet; [3],1
same,Sugarbeets plant response rating,sugar beet; [4],2
same,Sugarbeets plant response rating,sugar beet; [5],1
same,"Plant response rating, Sugarbeets",sugar beet; [6],4
same,Sugarbeets plant response rating,sugar beet; [7],5
same,Wheat plant response rating,wheat; [1],0
same,"Plant response rating, Wheat",wheat; [2],4
same,Wheat plant response rating,wheat; [3],0
same,Wheat plant response rating,wheat; [4],0
same,Wheat plant response rating,wheat; [5],0
same,"Plant response rating, Wheat",wheat; [6],0
same,Wheat plant response rating,wheat; [7],0
same,Wild oats plant response rating,wild oat; [1],7
same,"Plant response rating, Wild oats",wild oat; [2],8
same,Wild oats plant response rating,wild oat; [3],0
same,Wild oats plant response rating,wild oat; [4],0
same,"Plant response rating, Wild oats",wild oat; [6],0
same,Wild oats plant response rating,wild oat; [7],2
same,Nutsedge plant response rating,purple nutsedge; [8],0
same,Nutsedge plant response rating,purple nutsedge; [1],0
same,"Plant response rating, Nutsedge",purple nutsedge; [2],0
same,Nutsedge plant response rating,purple nutsedge; [3],0
same,Nutsedge plant response rating,purple nutsedge; [4],0
same,Nutsedge plant response rating,purple nutsedge; [5],0
same,"Plant response rating, Nutsedge",purple nutsedge; [6],0
same,Nutsedge plant response rating,purple nutsedge; [7],0
same,S. Flatsedge plant response rating,smallflower flatsedge; [9],0
same,S. Flatsedge plant response rating,smallflower flatsedge; [10],0
same,S. Flatsedge plant response rating,smallflower flatsedge; [11],0
same,S. Flatsedge plant response rating,smallflower flatsedge; [12],5
same,Ducksalad plant response rating,duck salad; [9],1
same,Ducksalad plant response rating,duck salad; [10],2
same,Ducksalad plant response rating,duck salad; [11],2
same,Ducksalad plant response rating,duck salad; [12],2
same,Barnyardgrass plant response rating,bamyardgrass; [9],2
same,Barnyardgrass plant response rating,bamyardgrass; [10],2
same,Barnyardgrass plant response rating,bamyardgrass; [11],1
same,Barnyardgrass plant response rating,bamyardgrass; [12],9
